Experimental data taken from patent US7659251B2, “Ligand for G-protein coupled receptor FPRL2” (priority 2004, dated 2010).

Experiments:
FPRL2 [1] = target: T1, FPRL2 (Homo sapiens, UniProt P25089); assay: Saturation and competition binding on FPRL2-expressing CHO-K1 cells, tracer F2L-[125I]Tyr; parameters: expressed in transfected cells; host or cells: CHO-K1; conditions: for competition for FPRL2 binding: up to concentrations of 3 μM, data not shown
T1 sequence (P25089 1-353): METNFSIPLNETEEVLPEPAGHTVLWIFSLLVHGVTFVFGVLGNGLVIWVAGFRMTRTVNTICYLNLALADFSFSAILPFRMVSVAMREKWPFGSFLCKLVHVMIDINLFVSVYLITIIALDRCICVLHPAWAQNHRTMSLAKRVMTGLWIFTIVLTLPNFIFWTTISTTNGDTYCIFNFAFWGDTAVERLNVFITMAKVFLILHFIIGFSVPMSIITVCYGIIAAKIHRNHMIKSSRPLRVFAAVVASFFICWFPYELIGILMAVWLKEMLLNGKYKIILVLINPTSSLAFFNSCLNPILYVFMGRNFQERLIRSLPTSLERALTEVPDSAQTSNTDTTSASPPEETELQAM
Method: FPRL2, FPRL1 and FPR-expressing CHO-K1 cells were plated in 24 wells plates (200,000 cells per well for FPRL2, and 100,000 cells per well for the two other receptors). The next day, the cells were washed twice with a KRH buffer containing 280 mM saccharose and, for FPRL1 and FPR, 0.1 % NaN3. […] Cells were washed twice with ice cold buffer, total radioactivity was recovered with 1 M […] and counted in a gamma counter for […]

FPRL2 [2] = target: T1, FPRL2; assay: Aequorin-based assay on CHO-K1 cells expressing FPRL2, apoaequorin and Galpha16; type: cell-based; parameters: expressed in transfected cells; host or cells: CHO-K1 (with or without Galpha16 and apoaequorin); conditions: for concentrations required to activate FPRL2 (calcium): FPRL2-expressing CHO-K1 cells
Method: Briefly, FPRL2 polypeptide-expressing clones are transfected to coexpress mitochondrial apoaequorin and Gα16. Cells are incubated with 5 μM Coelenterazine H (Molecular Probes) for 4 hours at room temperature, washed in DMEM-F12 culture medium and resuspended at a concentration of 0.5×10^6 cells/ml. Cells are then mixed with test agonist molecules and light emission by the aequorin is recorded with a luminometer for 30 sec. Results are expressed as Relative Light Units (RLU). Controls include assays using membranes isolated from cells not expressing FPRL2 polypeptide (mock transfected), in order to exclude possible non-specific effects of the candidate compound.
FPRL2 expressing clones have been obtained by transfection of CHO-K1 cells to coexpressing mitochondrial apoaequorin and Galpha16, limiting dilution and selection by northern blotting. Positive clones were used for screening with porcine spleen extracts prepared as described above. […] Briefly, cells were collected from plates in PBS containing 5 mM EDTA, pelleted and resuspended at 5×10^6 cells/ml in DMEM-F12 medium. Cells were incubated with 5 μM Coelenterazine H (Molecular Probes) for 4 hours at room temperature. Cells were then washed in DMEM-F12 medium and resuspended at a concentration of 0.5×10^6 cells/ml. Cells were then mixed with test agonist peptides or plates containing tissue extracts and the light emission was recorded for 30 sec using a Microlumat luminometer (Perlin Elmer). Results are expressed as Relative Light Units (RLU).
(§1) The human coding sequences (accession numbers AC005946, M84562 and M60626, respectively) were amplified by PCR from human genomic DNA, cloned into the pcDNA3 (Invitrogen) and pEFIN3 (Euroscreen) vectors and sequenced. The pEFIN3 constructs were transfected, using Fugene 6, into CHO-K1 cells, expressing or not Gα16 and apoaequorin. G418-resistant clones were characterized for receptor expression by Northern blotting. […] Results were expressed as relative light units (RLU) or as the percentage of the response to 20 μM ATP.
The cAMP concentrations were determined using a homogeneous time-resolved fluorescence (HTRF) kit (Cis Bio International). Briefly, cells were detached, resuspended in Krebs Ringer Hepes buffer containing 1 mM 3-Isobutyl-1-methylxanthine, and submitted to 10 μM forskolin, alone or together with increasing concentrations of agonists for 30 min at room temperature. The reaction was stopped by the successive addition of cAMP-XL665 and anti-cAMP cryptate diluted in lysis buffer. The plates were incubated for 60 min at room temperature and read on a Rubystar fluorimeter (BMG). […] A calibration curve was obtained by plotting delta F % versus cAMP concentrations. […] The aequorin-based assay was performed with or without overnight pretreatment with 100 ng/ml Pertussis toxin. […] For FPRL2 polymorphism analysis, HEK cells were transiently transfected with empty and wild-type or Asp338H is FPRL2-containing pcdna vector using calcium phosphate method. Cells were recovered 48 hours later and used for FACS or cAMP experiments.

FPR = target: T2, FPR (Homo sapiens, UniProt P21462, E346A/V101L); assay: Aequorin-based assay on CHO-K1 cells expressing FPR; type: cell-based; conditions: FPR expressed in CHO-K1 cells
T2 construct: expressed in transfected cells; host or cells: CHO-K1 (with or without Galpha16 and apoaequorin)
T2 sequence (P21462 1-350 V101L/E346A): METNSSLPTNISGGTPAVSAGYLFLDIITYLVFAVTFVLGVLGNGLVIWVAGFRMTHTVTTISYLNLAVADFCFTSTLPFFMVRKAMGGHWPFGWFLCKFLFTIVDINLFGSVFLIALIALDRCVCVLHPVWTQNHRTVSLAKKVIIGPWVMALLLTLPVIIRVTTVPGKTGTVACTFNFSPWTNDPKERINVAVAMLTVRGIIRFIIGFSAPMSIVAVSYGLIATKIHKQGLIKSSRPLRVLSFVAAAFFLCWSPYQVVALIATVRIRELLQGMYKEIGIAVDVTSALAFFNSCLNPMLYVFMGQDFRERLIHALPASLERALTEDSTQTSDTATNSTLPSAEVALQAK
Text: as §1

FPRL1 [3] = target: T3, FPRL1 (Homo sapiens, UniProt P25090); assay: Aequorin-based assay on CHO-K1 cells expressing FPRL1; type: cell-based; conditions: FPRL1 expressed in CHO-K1 cells
T3 construct: expressed in transfected cells; host or cells: CHO-K1 (with or without Galpha16 and apoaequorin)
T3 sequence (P25090 1-351): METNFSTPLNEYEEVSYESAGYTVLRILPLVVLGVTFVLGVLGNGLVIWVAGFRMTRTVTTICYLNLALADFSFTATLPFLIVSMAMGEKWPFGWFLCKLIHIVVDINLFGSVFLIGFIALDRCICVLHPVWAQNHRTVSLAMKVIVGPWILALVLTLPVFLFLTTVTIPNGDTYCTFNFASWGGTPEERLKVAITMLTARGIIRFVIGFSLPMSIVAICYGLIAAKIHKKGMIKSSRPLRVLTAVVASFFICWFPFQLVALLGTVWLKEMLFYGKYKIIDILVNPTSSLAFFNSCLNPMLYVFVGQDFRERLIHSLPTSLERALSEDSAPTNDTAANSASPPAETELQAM
Text: as §1

FPRL2 [4] = target: T1, FPRL2; assay: Aequorine assay on human FPRL2 expressing cells (Example 9); type: cell-based; parameters: expressed in transfected cells; host or cells: CHO-K1 (with or without Galpha16 and apoaequorin); conditions: peptides 2.5 μM to 0.4 nM, Mab 500 ug/ml to 5 ug/ml; FIG. 15
Method: (§2) Functional responses were analyzed by recording the luminescence of aequorine in human FPRL2 and FPRL1 expressing cells following the addition of agonists or purified monoclonal antibodies.
(§3) In brief, cells were collected from plates with PBS containing 5 mM EDTA, pelleted, resuspend at 5×10^6 cells/ml in DMEM/F-12 medium containing 0.1% bovine serum albumin, incubated with 5 μM coelenterazine H (molecular probes, Inc. Eugene, Oreg.) for 4 h at room temperature and diluted in DMEM/F-12 medium at a concentration of 5×10^5 cells/ml. Cells where then mixed in an 96 wells plate with the ligands or purified monoclonal antibodies. The light emission was recorded over 60 sec using a microlumat Luminometer (EG&G Berthold, microplate luminometer LB 96V).
(§4) Each data point is in duplicate. […] Human FPRL1 expressing cells were used as negative control to Mab. Functionality of these cells has been control with Humanin.

FPRL1 [5] = target: T3, FPRL1; assay: Aequorine assay on human FPRL1 expressing cells (Example 9); type: cell-based; conditions: data not shown
Method: as §2, §3, §4

| Molecule | competition for FPRL2 binding (FPRL2 [1]) | concentrations required to activate FPRL2 (calcium) (FPRL2 [2]) | concentrations active on FPR (FPR) | concentrations active on FPRL1 (FPRL1 [3]) | also measured |
| --- | --- | --- | --- | --- | --- |
| CSCC[C@H](NC=O)C(=O)N[C@@H](CC(C)C)C(=O)N[C@@H](Cc1ccccc1)C(=O)O [FMLP, formyl-methionine-leucyl-phenylalanine] | did not compete | – | – | – | activity on FPRL2 (FPRL2 [2]; FPRL2-expressing cells): inactive |
| CSCC[C@H](NC(=O)[C@@H](NC(=O)[C@H](CCSC)NC(=O)[C@H](Cc1ccc(O)cc1)NC(=O)[C@H](CCCCN)NC(=O)[C@@H](N)Cc1c[nH]c2ccccc12)C(C)C)C(N)=O [WKYMVM] | did not compete | micromolar concentrations | low nanomolar concentrations | low nanomolar concentrations | – |
| CSCC[C@H](NC(=O)[C@H](Cc1ccc(O)cc1)NC(=O)[C@H](CCCCN)NC(=O)[C@@H](N)Cc1c[nH]c2ccccc12)C(=O)N[C@H](C(=O)N[C@H](CCSC)C(N)=O)C(C)C [WKYMVm] | did not compete | micromolar concentrations | low nanomolar concentrations | low nanomolar concentrations | – |
| Humanin: Humanin (HN(N)) peptide (Phoenix Pharmaceuticals), disclosed as a ligand for FPRL2 and FPRL1 [reference compound] | – | – | – | – | activation of human FPRL2 expressing cells (FPRL2 [4]): activates; activation of human FPRL1 expressing cells (FPRL1 [5]): activates |
| NSLFGSVETWPWQVL [F2L[7-21], truncated F2L variant lacking the first six aminoacids] | – | – | – | – | activity in binding assay (FPRL2 [1]; not shown): totally inactive; activity in aequorin assay (FPRL2 [2]; FIG. 11H): totally inactive |
| Pertussis toxin | – | – | – | – | effect of pretreatment on F2L calcium signaling (FPRL2 [2]; 100 ng/ml overnight pretreatment, FIG. 11G): totally inhibited |
